# From patent US11205502B2, “Processing method and processing apparatus for efficacy of combined drug” (Institute of radiation medicine, academy of military …, priority 2015, dated 2021)
# Test system: human lung cancer cell H460 lines
# Assay: MTT method, inhibition of growth of H460 by etoposide, vincristine, 5-fluorouracil, adriamycin and three-drug combinations; expected additive effect by equivalent dose conversion
# Type: cell-based
# Conditions: for Efficacy of C / Efficacy of A / Efficacy of B: from fitted single-use equation
# Excerpt: Title: there are many application schemes for a chemotherapeutic drug in lung cancer treatment. The chemotherapeutic drug in these schemes mainly includes the followings that belong to a topoisomerase inhibitor, a microtubule inhibitor, a metabolic inhibitor and an alkylating agent from types. One representative drug is successively selected from the four types of the drugs and respectively is etoposide (A), vincristine (B), 5-fluorouracil (C) and adriamycin (D). For any three combined application schemes, the inhibition effect to growth of human lung cancer cell H460 lines is detected with an MTT method. The three schemes successively are combinations of four combined drugs of A+B+C, A+B+D, A+C+D and B+C+D and the synergistic, additive and antagonistic effects are evaluated quantitatively. A:B:C=12.5:2:45 (μg/ml+μg/ml+μg/ml) A+B+C combination: A:B:D=12.5:2:4 (μg/ml+μg/ml+μg/ml) A+B+D combination: A:C:D=12.5:45:4 (μg/ml+μg/ml+μg/ml) A+C+D combination: B:C:D=2:45:4 (μg/ml+μg/ml+μg/ml) B+C+D combination:
# For the etoposide (A), vincristine (B) and 5-fluorouracil (C), dose-effect relationship data of single drugs and dose-effect relationship data in the combined use A:B:C=12.5:2:45 (μg/ml+μg/ml+μg/ml), see a table 9 and a table 10.
# Step 2, the dose is converted sequentially, and each dose-effect relationship data formed into an expected additive efficacy curve band under a combined condition is calculated.
# The equivalent dose conversion is performed on combinations of two drugs of A+B, A+C and B+C sequentially first and then the equivalent dose conversion is performed on (A+B)+C, (A+C)+B and (B+C)+A. An expression for an expected additive effect of the three drugs in the combined use is as follows.
# Y(A+B+C)=[Y(A+B)C, Y(A+C)+B, Y(B+c)+A] Hi^Lo↓, wherein Hi^Lo↓ Indicates function values of units in a number set and should be arranged from low to high. The Y(A+B+C)=[Y(A+B)+C, Y(A+C)+B, Y(B+c)+A]
# [1] = A:B:C=12.5:2:45 fixed proportion
compound,measurement,setting,value
"O=c1[nH]cc(F)c(=O)[nH]1 [5-fluorouracil (C), 5-fluorouracil]","dose range of the additive effect, 5-fluorouracil (C)",[1],6.5815 to 19.7579 µg/mL
same,Efficacy of C,C 0.00017166 μg/ml,−2.8810%
same,Efficacy of C,C 0.00068665 μg/ml,−2.7475%
same,Efficacy of C,C 0.00274658 μg/ml,−2.3331%
same,Efficacy of C,C 0.01098633 μg/ml,−1.0631%
same,Efficacy of C,C 0.04394531 μg/ml,2.6806%
same,Efficacy of C,C 0.17578125 μg/ml,12.5608%
same,Efficacy of C,C 0.703125 μg/ml,32.4840%
same,Efficacy of C,C 2.8125 μg/ml,57.2443%
same,Efficacy of C,C 11.25 μg/ml,74.5929%
same,Efficacy of C,C 45 μg/ml,82.4752%
same,inhibition at 0.000686646 µg/mL,"Homo sapiens, NCI-H460, 5-fluorouracil (C) 0.000686646 μg/ml single use, read-out: Inhibition rate",-0.33%
same,inhibition at 0.00274658 µg/mL,"Homo sapiens, NCI-H460, 5-fluorouracil (C) 0.002746582 μg/ml single use, read-out: Inhibition rate",6.67%
same,inhibition at 0.0109863 µg/mL,"Homo sapiens, NCI-H460, 5-fluorouracil (C) 0.010986328 μg/ml single use, read-out: Inhibition rate",-3.78%
same,inhibition at 0.0439453 µg/mL,"Homo sapiens, NCI-H460, 5-fluorouracil (C) 0.043945313 μg/ml single use, read-out: Inhibition rate",-6.89%
same,inhibition at 0.175781 µg/mL,"Homo sapiens, NCI-H460, 5-fluorouracil (C) 0.17578125 μg/ml single use, read-out: Inhibition rate",7.91%
same,inhibition at 0.703125 µg/mL,"Homo sapiens, NCI-H460, 5-fluorouracil (C) 0.703125 μg/ml single use, read-out: Inhibition rate",40%
same,inhibition at 2.8125 µg/mL,"Homo sapiens, NCI-H460, 5-fluorouracil (C) 2.8125 μg/ml single use, read-out: Inhibition rate",60.8%
same,inhibition at 11.25 µg/mL,"Homo sapiens, NCI-H460, 5-fluorouracil (C) 11.25 μg/ml single use, read-out: Inhibition rate",61.4%
same,inhibition at 45 µg/mL,"Homo sapiens, NCI-H460, 5-fluorouracil (C) 45 μg/ml single use, read-out: Inhibition rate",84.5%
same,inhibition at 180 µg/mL,"Homo sapiens, NCI-H460, 5-fluorouracil (C) 180 μg/ml single use, read-out: Inhibition rate",91%
"COc1cc([C@@H]2c3cc4c(cc3[C@@H](O[C@@H]3O[C@@H]5CO[C@@H](C)O[C@H]5[C@H](O)[C@H]3O)[C@H]3COC(=O)[C@H]23)OCO4)cc(OC)c1O [Etoposide (A), etoposide]",Efficacy of A,A 0.00004768 μg/ml,−1.3189%
same,Efficacy of A,A 0.00019073 μg/ml,0.5342%
same,Efficacy of A,A 0.00076294 μg/ml,3.2432%
same,Efficacy of A,A 0.00305176 μg/ml,7.1153%
same,Efficacy of A,A 0.01220703 μg/ml,12.4756%
same,Efficacy of A,A 0.048828125 μg/ml,19.5765%
same,Efficacy of A,A 0.1953125 μg/ml,28.4535%
same,Efficacy of A,A 0.78125 μg/ml,38.7811%
same,Efficacy of A,A 3.125 μg/ml,49.8373%
same,Efficacy of A,A 12.5 μg/ml,60.6678%
same,"dose range of the additive effect, etoposide (A)",[1],1.8282 to 5.4883 µg/mL
same,inhibition at 0.000190735 µg/mL,"Homo sapiens, NCI-H460, Etoposide (A) 0.000190735 μg/ml single use, read-out: Inhibition rate",1.38%
same,inhibition at 0.000762939 µg/mL,"Homo sapiens, NCI-H460, Etoposide (A) 0.000762939 μg/ml single use, read-out: Inhibition rate",3.73%
same,inhibition at 0.00305176 µg/mL,"Homo sapiens, NCI-H460, Etoposide (A) 0.003051758 μg/ml single use, read-out: Inhibition rate",-0.19%
same,inhibition at 0.012207 µg/mL,"Homo sapiens, NCI-H460, Etoposide (A) 0.012207031 μg/ml single use, read-out: Inhibition rate",16.7%
same,inhibition at 0.0488281 µg/mL,"Homo sapiens, NCI-H460, Etoposide (A) 0.048828125 μg/ml single use, read-out: Inhibition rate",17.2%
same,inhibition at 0.195312 µg/mL,"Homo sapiens, NCI-H460, Etoposide (A) 0.1953125 μg/ml single use, read-out: Inhibition rate",30.6%
same,inhibition at 0.78125 µg/mL,"Homo sapiens, NCI-H460, Etoposide (A) 0.78125 μg/ml single use, read-out: Inhibition rate",41.5%
same,inhibition at 3.125 µg/mL,"Homo sapiens, NCI-H460, Etoposide (A) 3.125 μg/ml single use, read-out: Inhibition rate",49.6%
same,inhibition at 12.5 µg/mL,"Homo sapiens, NCI-H460, Etoposide (A) 12.5 μg/ml single use, read-out: Inhibition rate",55%
same,inhibition at 50 µg/mL,"Homo sapiens, NCI-H460, Etoposide (A) 50 μg/ml single use, read-out: Inhibition rate",74.4%
"CC[C@]1(O)C[C@H]2CN(CCc3c([nH]c4ccccc34)[C@@](C(=O)OC)(c3cc4c(cc3OC)N(C=O)[C@H]3[C@@](O)(C(=O)OC)[C@H](OC(C)=O)[C@]5(CC)C=CCN6CC[C@]43[C@@H]65)C2)C1 [Vincristine (B), vincristine]","dose range of the additive effect, vincristine (B)",[1],0.2925 to 0.8781 µg/mL
same,Efficacy of B,B 0.00000763 μg/ml,4.9016%
same,Efficacy of B,B 0.00003052 μg/ml,4.9048%
same,Efficacy of B,B 0.00012207 μg/ml,4.9268%
same,Efficacy of B,B 0.00048828 μg/ml,5.0764%
same,Efficacy of B,B 0.00195313 μg/ml,6.0768%
same,Efficacy of B,B 0.0078125 μg/ml,12.0757%
same,Efficacy of B,B 0.03125 μg/ml,33.3731%
same,Efficacy of B,B 0.125 μg/ml,55.3101%
same,Efficacy of B,B 0.5 μg/ml,61.7291%
same,Efficacy of B,B 2 μg/ml,62.8101%
same,inhibition at 30.52 pg/mL,"Homo sapiens, NCI-H460, Vincristine (B) 0.000030518 μg/ml single use, read-out: Inhibition rate",2.75%
same,inhibition at 0.00012207 µg/mL,"Homo sapiens, NCI-H460, Vincristine (B) 0.00012207 μg/ml single use, read-out: Inhibition rate",-0.11%
same,inhibition at 0.000488281 µg/mL,"Homo sapiens, NCI-H460, Vincristine (B) 0.000488281 μg/ml single use, read-out: Inhibition rate",13.2%
same,inhibition at 0.00195312 µg/mL,"Homo sapiens, NCI-H460, Vincristine (B) 0.001953125 μg/ml single use, read-out: Inhibition rate",8.91%
same,inhibition at 0.0078125 µg/mL,"Homo sapiens, NCI-H460, Vincristine (B) 0.0078125 μg/ml single use, read-out: Inhibition rate",6.25%
same,inhibition at 0.03125 µg/mL,"Homo sapiens, NCI-H460, Vincristine (B) 0.03125 μg/ml single use, read-out: Inhibition rate",37%
same,inhibition at 0.125 µg/mL,"Homo sapiens, NCI-H460, Vincristine (B) 0.125 μg/ml single use, read-out: Inhibition rate",53.2%
same,inhibition at 0.5 µg/mL,"Homo sapiens, NCI-H460, Vincristine (B) 0.5 μg/ml single use, read-out: Inhibition rate",55.9%
same,inhibition at 2 µg/mL,"Homo sapiens, NCI-H460, Vincristine (B) 2 μg/ml single use, read-out: Inhibition rate",65.8%
same,inhibition at 8 µg/mL,"Homo sapiens, NCI-H460, Vincristine (B) 8 μg/ml single use, read-out: Inhibition rate",66.3%
